Measurements as given in ChEMBL document CHEMBL1201862, “PubChem BioAssay data set” (2004).
The source made the active and inactive calls.

Legend:
[1] = tested on: BJ; test: cytotoxicity toward BJ-TERT-LT-ST fibroblasts, dose response, cell-based, RAS-independent, luminescence (AID 1935); type: functional; settings: Homo sapiens;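 also: BJ fibroblasts immortalized with TERT plus LT and ST oncogenes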
[2] = tested on: BJ; test: cytotoxicity toward BJ-TERT fibroblasts, dose response, cell-based, RAS-independent, luminescence (AID 1933); type: functional; settings: Homo sapiens
[3] = Luminescence Cell-Based Dose Confirmation HTS to Identify Inhibitors of Platelet Dense Granule Release. [Related pubchem assays: 1663 (Primary HTS), 1678 (Summary of Project)]; type: functional
[4] = biological target: Luciferin 4-monooxygenase (Photinus pyralis, UniProt P08659); test: firefly luciferase enzyme inhibitors, dose response, biochemical, luminescence (AID 1891)
[5] = Luminescence Cell-Based Dose Retest to Confirm Inhibitors of Cancer Stem Cells. [Related pubchem assays (depositor defined):AID2717, AID2721]; type: functional; settings: Homo sapiens
[6] = cytotoxicity toward DRD oncogenic fibroblasts, dose response, cell-based, non-viral oncogenic, luminescence (AID 1934); type: functional; settings: Homo sapiens
[7] = tested on: BJ; test: cells; type: functional, cell-based; settings: Homo sapiens
[8] = tested on: BJ; test: cytotoxicity toward Ras-transformed BJeLR fibroblasts, dose response, cell-based, alamar blue fluorescence, cherrypicked samples (AID 2631); type: functional; settings: Homo sapiens;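 also: confirmatory dose-response assay in RAS-dependent BJ fibroblasts engineered with TERT, LT and ST, with cytotoxicity read by fluorescence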
[9] = biological target: DNA (cytosine-5)-methyltransferase 1 (Homo sapiens, UniProt P26358); test: DNMT1 methyltransferase inhibitors, confirmation, biochemical, fluorescent molecular beacon (AID 602386); type: functional
[10] = insulin promoter down-regulators in MIN6 cells, imaging, high-content screening, mouse beta cells (AID 1628); type: functional
[11] = biological target: T1, High affinity choline transporter 1 (Homo sapiens, UniProt Q9GZV3); test: CHT inhibitors, dose response, cell-based, 5-point CRC, membrane potential dye (AID 504840); type: functional
T1 sequence (Q9GZV3 whole entry): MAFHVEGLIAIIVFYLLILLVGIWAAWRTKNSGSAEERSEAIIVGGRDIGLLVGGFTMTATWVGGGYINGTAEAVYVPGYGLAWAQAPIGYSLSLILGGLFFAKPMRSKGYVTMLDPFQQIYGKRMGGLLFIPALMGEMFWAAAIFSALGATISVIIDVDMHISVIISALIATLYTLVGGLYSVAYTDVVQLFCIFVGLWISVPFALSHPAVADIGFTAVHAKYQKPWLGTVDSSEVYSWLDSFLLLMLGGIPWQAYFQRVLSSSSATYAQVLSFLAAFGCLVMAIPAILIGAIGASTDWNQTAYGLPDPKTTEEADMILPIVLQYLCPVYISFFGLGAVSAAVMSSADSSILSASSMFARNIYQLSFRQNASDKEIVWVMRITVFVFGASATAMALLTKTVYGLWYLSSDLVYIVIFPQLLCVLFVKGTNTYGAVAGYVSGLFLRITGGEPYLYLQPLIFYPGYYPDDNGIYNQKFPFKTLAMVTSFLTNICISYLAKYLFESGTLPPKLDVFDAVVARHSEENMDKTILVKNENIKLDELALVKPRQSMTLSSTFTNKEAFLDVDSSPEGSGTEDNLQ

[12] = tested on: Streptococcus; test: Group A Streptococcus viability loss, dose response, counter-screen for streptokinase expression inhibitor project, luminescence, BacTiterGlo (AID 1915); type: functional, organism-based;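 also: potency for reduction of bacterial viability or growth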
[13] = tested on: Streptococcus sp. 'group A'; test: growth inhibition of control SK(-) GAS strain, dose response, counter-screen for streptokinase expression inhibitor project, luminescence, kanamycin, BacTiterGlo, confirmation (AID 1900); type: functional, organism-based
[14] = biological target: ATP-dependent molecular chaperone HSP82 (Candida albicans (strain WO-1) (Yeast), UniProt C4YTQ8); test: loss of DOC-induced GRE-beta-galactosidase reporter signal, dose response, Hsp90 inhibitor project, S. cerevisiae, luminescence (AID 2400); type: functional, cell-based;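 also: beta-galactosidase luminescence from glucocorticoid response element reporter as proxy for Hsp90 function; inhibitor potency where signal loss means Hsp90 inhibition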
[15] = cytotoxicity in MIN6 insulinoma cells, dose response, cytotoxicity control, cell-based, mouse insulinoma (AID 2122); type: functional;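 also: confirmatory high-throughput counterscreen run to flag cytotoxic compounds; mouse MIN-6 beta cells carrying an insulin promoter eGFP reporter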
[16] = C. albicans growth with fluconazole, confirmation, fluorescence, retest (AID 2467); type: functional, cell-based
[17] = biological target: T2, Serine/threonine-protein phosphatase (Candida dubliniensis (strain CD36 / CBS 7987 / NCPF 3949 / NRRLY-17841) (Yeast), UniProt B9W6M3); test: calcineurin pathway inhibitors in yeast reporter, dose response, S. cerevisiae, CDRE-lacZ, luminescence, secondary (AID 2388); type: functional, cell-based;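 also: yeast reporter cells carrying a calcineurin-responsive lacZ construct stimulated with calcium chloride; luminescent beta-galactosidase reporter signal in whole cells rather than isolated phosphatase activity; potency for inhibition where a drop in reporter signal means calcineurin blockade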
T2 sequence (B9W6M3 whole entry): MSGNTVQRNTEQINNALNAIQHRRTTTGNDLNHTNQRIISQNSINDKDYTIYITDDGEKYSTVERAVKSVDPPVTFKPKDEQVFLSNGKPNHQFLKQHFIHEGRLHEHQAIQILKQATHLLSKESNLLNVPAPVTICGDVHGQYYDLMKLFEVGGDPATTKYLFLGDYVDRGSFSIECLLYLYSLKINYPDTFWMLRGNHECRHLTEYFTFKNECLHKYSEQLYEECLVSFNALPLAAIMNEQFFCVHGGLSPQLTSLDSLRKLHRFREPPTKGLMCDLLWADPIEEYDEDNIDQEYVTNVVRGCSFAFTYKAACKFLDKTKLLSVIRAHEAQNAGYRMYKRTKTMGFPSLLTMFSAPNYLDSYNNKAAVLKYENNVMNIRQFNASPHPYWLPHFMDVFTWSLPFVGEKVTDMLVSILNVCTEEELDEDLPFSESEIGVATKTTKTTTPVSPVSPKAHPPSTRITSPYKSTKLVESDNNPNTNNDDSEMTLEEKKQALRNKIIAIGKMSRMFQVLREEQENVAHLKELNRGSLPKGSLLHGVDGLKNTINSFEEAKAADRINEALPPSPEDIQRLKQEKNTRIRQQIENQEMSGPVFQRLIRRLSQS

[18] = NIH-3T3 fibroblast cytotoxicity, dose response, cytotoxicity control, cell-based, fluorescence, Alamar Blue, secondary assay (AID 2327); type: functional;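 also: NIH-3T3 mouse fibroblasts cultured with fluconazole at 8 µg/mL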
[19] = biological target: T3, Dual specificity protein phosphatase 6 (Rattus norvegicus, UniProt Q64346); test: MKP-3 phosphatase inhibitors, primary screen, biochemical, rat enzyme, in vitro (AID 425)
T3 sequence (Q64346 whole entry): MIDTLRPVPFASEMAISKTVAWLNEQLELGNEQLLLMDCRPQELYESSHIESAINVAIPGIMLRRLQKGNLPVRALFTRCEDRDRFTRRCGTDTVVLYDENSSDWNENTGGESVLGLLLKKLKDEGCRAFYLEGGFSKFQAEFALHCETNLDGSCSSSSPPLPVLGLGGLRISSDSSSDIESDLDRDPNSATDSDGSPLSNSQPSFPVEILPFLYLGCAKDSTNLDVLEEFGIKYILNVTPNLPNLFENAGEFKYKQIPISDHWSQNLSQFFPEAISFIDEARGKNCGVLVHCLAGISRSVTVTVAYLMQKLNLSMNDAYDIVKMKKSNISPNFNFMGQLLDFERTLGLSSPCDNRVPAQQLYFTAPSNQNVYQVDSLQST

[20] = biological target: Tyrosine-protein phosphatase non-receptor type 5 (Homo sapiens, UniProt P54829); test: STEP phosphatase inhibitors, confirmation, biochemical, fluorescence intensity, uHTS hits (AID 602372); type: functional; settings: read-out: IC50_Mean
[21] = biological target: T4, Dual specificity protein phosphatase 3 (Homo sapiens, UniProt P51452); test: VHR phosphatase inhibition, dose response, selectivity assay for STEP inhibitor project, biochemical (AID 602374); type: functional; settings: read-out: IC50_Mean
[22] = biological target: Tyrosine-protein phosphatase non-receptor type 11 (Homo sapiens, UniProt Q06124); test: SHP2 phosphatase inhibition, dose response, selectivity assay for STEP inhibitor project, biochemical (AID 602367); type: functional; settings: read-out: IC50_Mean
[23] = biological target: T4, Dual specificity protein phosphatase 3; test: VHR1 phosphatase inhibitors, biochemical (AID 1878)
[24] = biological target: T4, Dual specificity protein phosphatase 3; test: VHR1 phosphatase inhibitors, primary screen, biochemical, absorbance, uHTS (AID 1654)
[25] = biological target: T5, Interleukin-8 (Homo sapiens, UniProt P10145); test: Dose Response confirmation of uHTS small molecule hits for cystic fibrosis induced NFkb Inhibitors in a PAF-induced IL8 counterscreen.; type: functional; settings: read-out: IC50_Mean
T5 sequence (P10145 whole entry): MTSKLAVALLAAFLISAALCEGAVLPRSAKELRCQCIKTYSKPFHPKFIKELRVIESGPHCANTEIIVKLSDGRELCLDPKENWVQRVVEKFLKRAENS

[26] = inhibitors of PGC1a acetylation in cells, dose response, cell-based, cherry-picked samples (AID 720514); type: functional;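 also: potency may reflect raised or lowered acetylation signal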
[27] = biological target: T6, Cysteine protease ATG4B (Homo sapiens, UniProt Q9Y4P1); type: functional;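 also: Fluorescence-based dose-response confirmation assay measuring inhibition of ATG4B activity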
T6 sequence (Q9Y4P1 whole entry): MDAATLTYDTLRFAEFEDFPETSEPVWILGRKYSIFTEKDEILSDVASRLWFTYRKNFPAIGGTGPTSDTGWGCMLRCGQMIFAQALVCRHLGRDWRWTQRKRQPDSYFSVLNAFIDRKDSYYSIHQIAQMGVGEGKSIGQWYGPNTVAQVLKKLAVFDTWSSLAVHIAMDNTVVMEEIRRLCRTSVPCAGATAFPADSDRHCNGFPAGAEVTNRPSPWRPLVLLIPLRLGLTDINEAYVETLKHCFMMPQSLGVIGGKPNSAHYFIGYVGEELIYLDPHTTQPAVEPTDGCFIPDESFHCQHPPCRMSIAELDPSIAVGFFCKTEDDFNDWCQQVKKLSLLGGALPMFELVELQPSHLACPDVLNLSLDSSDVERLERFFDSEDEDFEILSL

[28] = biological target: Phospholipase A2 (Homo sapiens, UniProt P04054); type: functional;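 also: confirmatory dose-response counterscreen on phospholipase A2, testing hits that came from an ultra-high-throughput screen for ATG4B inhibitors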
[29] = biological target: 5-hydroxytryptamine receptor 2A (Mus musculus, UniProt P35363); type: functional, cell-based;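 also: CHO-K1 cells with tagged receptor and beta-arrestin; agonist potency measured as compound-induced activation of the receptor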
[30] = biological target: Mu-type opioid receptor (Homo sapiens, UniProt P35372); type: functional, cell-based;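 also: U2OS cells with beta-arrestin recruitment to OPRM1 by beta-gal complementation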
[31] = Vero cell cytotoxicity, cytotoxicity control for M. tuberculosis inhibitor project, purified and synthesized samples, set 3 (AID 504684); type: functional
[32] = biological target: T1, High affinity choline transporter 1; test: CHT inhibitors, dose response, cell-based, 10-point CRC, membrane potential dye (AID 588401); type: functional;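 also: membrane potential dye fluorescence of choline-evoked depolarization via CHT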

T4 sequence (P51452 whole entry): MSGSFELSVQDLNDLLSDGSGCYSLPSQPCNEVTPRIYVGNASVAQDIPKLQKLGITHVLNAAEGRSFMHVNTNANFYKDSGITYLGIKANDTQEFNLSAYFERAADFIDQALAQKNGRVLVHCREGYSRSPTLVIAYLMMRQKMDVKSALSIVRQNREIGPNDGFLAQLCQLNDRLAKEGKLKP
Phospholipase A2, sequence (P04054 whole entry): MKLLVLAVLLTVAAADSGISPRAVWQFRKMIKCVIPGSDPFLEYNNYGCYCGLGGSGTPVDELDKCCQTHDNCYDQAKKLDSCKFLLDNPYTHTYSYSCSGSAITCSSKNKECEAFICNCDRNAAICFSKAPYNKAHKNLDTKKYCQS
Luciferin 4-monooxygenase, sequence (P08659 whole entry): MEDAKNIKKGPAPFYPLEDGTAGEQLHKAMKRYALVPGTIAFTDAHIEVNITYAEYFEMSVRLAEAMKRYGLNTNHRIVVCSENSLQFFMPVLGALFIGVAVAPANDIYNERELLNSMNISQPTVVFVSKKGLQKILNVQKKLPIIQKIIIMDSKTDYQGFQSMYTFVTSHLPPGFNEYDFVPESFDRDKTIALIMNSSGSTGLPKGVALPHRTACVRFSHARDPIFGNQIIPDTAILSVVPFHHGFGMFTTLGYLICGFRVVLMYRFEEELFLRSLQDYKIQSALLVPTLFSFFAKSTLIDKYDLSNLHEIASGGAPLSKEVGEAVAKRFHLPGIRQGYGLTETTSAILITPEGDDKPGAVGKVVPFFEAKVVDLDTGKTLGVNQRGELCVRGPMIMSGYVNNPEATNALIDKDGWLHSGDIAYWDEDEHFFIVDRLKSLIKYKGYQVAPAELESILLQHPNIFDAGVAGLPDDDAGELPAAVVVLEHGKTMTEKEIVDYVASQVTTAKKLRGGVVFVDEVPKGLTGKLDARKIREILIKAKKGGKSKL
Tyrosine-protein phosphatase non-receptor type 5, sequence (P54829 whole entry): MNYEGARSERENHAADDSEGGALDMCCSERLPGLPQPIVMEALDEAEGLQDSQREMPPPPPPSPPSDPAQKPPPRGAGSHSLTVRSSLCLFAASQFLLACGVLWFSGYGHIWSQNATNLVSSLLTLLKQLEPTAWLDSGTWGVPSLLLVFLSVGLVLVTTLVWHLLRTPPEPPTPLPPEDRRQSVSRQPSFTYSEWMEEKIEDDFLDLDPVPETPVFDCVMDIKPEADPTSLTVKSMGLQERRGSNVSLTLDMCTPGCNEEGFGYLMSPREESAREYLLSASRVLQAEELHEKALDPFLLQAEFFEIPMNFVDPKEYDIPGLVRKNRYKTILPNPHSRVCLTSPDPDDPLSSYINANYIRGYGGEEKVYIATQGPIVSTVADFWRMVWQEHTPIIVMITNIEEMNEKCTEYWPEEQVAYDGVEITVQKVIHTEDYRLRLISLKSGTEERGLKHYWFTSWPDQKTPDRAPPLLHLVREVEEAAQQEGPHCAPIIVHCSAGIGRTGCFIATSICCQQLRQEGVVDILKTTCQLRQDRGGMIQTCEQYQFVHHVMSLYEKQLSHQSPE
DNA (cytosine-5)-methyltransferase 1, sequence (P26358 whole entry): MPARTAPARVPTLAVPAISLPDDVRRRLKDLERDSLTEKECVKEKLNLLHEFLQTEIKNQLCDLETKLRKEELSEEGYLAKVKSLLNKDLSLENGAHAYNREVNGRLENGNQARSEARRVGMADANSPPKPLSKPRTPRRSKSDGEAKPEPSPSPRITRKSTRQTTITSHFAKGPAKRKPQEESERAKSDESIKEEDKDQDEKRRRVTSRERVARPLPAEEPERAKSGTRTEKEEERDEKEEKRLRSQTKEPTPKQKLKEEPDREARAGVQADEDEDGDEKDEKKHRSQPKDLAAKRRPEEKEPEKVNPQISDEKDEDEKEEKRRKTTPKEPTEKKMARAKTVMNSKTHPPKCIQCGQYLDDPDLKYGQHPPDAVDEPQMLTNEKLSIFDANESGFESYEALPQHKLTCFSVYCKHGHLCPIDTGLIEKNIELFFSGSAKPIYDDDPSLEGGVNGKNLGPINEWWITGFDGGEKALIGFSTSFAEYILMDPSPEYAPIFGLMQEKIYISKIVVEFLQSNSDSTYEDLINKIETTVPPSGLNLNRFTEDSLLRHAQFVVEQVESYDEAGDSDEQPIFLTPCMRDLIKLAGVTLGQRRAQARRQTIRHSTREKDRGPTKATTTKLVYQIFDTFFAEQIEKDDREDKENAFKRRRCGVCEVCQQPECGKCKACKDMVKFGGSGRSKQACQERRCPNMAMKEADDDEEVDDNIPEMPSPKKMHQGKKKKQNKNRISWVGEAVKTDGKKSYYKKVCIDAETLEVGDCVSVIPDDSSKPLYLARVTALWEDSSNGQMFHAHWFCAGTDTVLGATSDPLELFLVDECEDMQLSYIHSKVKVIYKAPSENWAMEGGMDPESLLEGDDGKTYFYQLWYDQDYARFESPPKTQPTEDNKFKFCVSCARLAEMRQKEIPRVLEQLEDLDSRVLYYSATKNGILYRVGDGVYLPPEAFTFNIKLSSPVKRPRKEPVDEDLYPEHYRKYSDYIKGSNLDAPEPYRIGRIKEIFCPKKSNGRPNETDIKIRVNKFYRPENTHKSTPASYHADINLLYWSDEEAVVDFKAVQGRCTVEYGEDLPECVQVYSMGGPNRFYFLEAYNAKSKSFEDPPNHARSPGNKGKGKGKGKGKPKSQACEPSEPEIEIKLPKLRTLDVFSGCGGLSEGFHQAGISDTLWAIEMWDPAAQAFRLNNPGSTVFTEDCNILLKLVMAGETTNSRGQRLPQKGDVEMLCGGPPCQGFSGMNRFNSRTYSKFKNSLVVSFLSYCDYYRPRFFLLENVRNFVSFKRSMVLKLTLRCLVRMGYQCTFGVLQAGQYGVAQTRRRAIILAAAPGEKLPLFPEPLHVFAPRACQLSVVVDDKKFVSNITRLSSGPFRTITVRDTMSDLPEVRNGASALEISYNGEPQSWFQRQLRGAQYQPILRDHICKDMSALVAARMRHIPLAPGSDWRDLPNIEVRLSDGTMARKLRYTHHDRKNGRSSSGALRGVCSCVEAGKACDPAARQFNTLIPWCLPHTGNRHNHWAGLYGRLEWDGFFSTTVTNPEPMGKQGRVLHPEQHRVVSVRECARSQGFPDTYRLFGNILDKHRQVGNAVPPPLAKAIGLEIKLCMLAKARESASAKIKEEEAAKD
Mu-type opioid receptor, sequence (P35372 whole entry): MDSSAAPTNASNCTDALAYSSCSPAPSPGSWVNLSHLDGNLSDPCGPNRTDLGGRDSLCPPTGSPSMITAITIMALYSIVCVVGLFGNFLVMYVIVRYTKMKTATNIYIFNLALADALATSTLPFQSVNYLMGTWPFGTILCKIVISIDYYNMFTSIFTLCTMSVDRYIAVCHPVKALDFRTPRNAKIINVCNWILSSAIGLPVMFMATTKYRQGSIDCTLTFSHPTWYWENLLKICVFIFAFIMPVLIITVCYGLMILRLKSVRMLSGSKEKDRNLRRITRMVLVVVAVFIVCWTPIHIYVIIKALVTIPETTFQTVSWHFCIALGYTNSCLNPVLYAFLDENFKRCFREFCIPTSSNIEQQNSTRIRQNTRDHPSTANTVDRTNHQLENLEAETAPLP
Tyrosine-protein phosphatase non-receptor type 11, sequence (Q06124 whole entry): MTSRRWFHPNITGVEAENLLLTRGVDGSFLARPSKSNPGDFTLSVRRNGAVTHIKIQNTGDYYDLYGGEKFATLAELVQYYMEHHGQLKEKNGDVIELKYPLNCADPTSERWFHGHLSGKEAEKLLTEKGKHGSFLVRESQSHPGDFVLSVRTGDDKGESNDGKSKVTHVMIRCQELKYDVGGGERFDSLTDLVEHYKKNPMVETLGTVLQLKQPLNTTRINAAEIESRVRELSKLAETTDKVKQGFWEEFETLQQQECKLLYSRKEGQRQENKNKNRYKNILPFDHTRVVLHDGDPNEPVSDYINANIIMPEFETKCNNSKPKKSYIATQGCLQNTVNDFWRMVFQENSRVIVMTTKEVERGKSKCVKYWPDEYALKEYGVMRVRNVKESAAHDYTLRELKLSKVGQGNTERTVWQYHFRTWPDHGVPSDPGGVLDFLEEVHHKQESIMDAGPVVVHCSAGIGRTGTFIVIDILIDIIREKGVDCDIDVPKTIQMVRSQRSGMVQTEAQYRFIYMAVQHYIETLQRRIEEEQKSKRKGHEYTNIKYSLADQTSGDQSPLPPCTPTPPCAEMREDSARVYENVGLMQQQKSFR
5-hydroxytryptamine receptor 2A, sequence (P35363 whole entry): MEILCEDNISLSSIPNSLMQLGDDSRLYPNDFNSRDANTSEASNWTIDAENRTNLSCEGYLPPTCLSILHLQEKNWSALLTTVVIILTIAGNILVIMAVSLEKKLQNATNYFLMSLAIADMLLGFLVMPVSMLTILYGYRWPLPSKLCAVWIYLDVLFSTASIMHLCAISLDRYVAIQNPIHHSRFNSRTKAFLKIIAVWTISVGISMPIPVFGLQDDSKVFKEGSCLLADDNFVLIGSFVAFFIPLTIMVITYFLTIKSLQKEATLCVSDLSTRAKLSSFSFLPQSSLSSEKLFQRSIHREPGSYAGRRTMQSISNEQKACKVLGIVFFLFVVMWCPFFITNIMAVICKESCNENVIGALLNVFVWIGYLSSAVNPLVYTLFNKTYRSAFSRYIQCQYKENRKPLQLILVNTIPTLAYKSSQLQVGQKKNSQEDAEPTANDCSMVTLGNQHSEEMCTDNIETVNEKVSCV

O=C(Oc1ccc(-c2nc(-c3ccccn3)no2)cc1)c1ccccc1
EC50 [1]: 16.8 µM (active) | EC50 [2]: 4.55 µM (active) | EC50 [3]: 0.475 µM (active) | EC50 [4]: 0.421 µM (active) | AC50 [5]: 2.63 µM (active) | EC50 [6]: 3.96 µM (active) | EC50 [7]: 3.19 µM (active) | EC50 [8]: > 133 µM (inactive) | IC50 [9]: > 99 µM (inactive)

CC1(C)COCN1S(=O)(=O)c1ccc(C(=O)Nc2nnc(-c3ccc(Cl)s3)o2)cc1
IC50 [10]: 3.39 µM (active) | IC50 [11]: 13.8 µM (active) | EC50 [12]: 0.841 µM (active) | EC50 [13]: 0.691 µM (active) | EC50 [14]: 22.2 µM (active) | IC50 [15]: 3.33 µM (active) | EC50 [16]: 0.308 µM (active) | EC50 [17]: > 180 µM (inactive) | EC50 [18]: 68.5 µM (active)

COC(=O)Nc1sc2c(c1C(N)=O)CCC(C)C2 (stereo not drawn)
IC50 [19]: > 158 µM (not active) | IC50 [20]: 4.65 µM (active) | IC50 [21]: 0.312 µM (active) | IC50 [22]: 1.81 µM (active) | IC50 [23]: 3.56 µM (active) | IC50 [24]: 1.9 µM (active)

Nc1ncnc(NCc2ccc(F)cc2)c1[N+](=O)[O-]
IC50 [25]: > 79 µM (inactive) | AC50 [26]: 3.1 µM (active)

Cc1ccc(S(=O)(=O)N2CCC(C(=O)NCc3ccccc3Cl)CC2)cc1
IC50 [27]: 17.5 µM (active) | IC50 [28]: 9.46 µM (active)

CNCC(=O)c1ccc(O)c(O)c1 [ADRENALONE]
EC50 [29]: 4.04 µM (active) | EC50 [30]: 92.4 µM (inactive)

Cc1ccc(NC(=O)C2C3/C=C\CCCCC32)cc1C (stereo not drawn)
CC50 [31]: > 100 µM (active)

Cc1ccc2c(c1)[C@@H]1CN(C)CC[C@@H]1N2C(=O)Nc1cccc(C(F)(F)F)c1
IC50 [11]: 8.23 µM (active) | IC50 [32]: 6.31 µM (active)
